Measurements published in US9980963B2, “Treatment of cancer with dihydropyrazino-pyrazines” (Signal Pharmaceuticals, LLC, priority 2013, dated 2018).
“Also recorded” adds a separate entry of the source.

Experiments:
Type in all cases: cell-based, human
[1] = system: Wildtype CLL cells; assay: Compound toxicity assay for CLL patient cells (wildtype); details: FIG. 1A; for sensitivity of wildtype CLL cells to the compound: single agent, feeder layer of CD40 ligand-expressing NIH 3T3 cells
[2] = system: del(11q) CLL cells; assay: Compound toxicity assay for CLL patient cells (del(11q)); details: single agent; feeder layer of CD40 ligand-expressing NIH 3T3 cells; FIG. 1B
[3] = system: IGVH mutated CLL cells; assay: CLL patient cells apoptosis assay (DioC6/PI); details: 48 hours; FIGS. 2A, E
Description: (§1) CLL Patient Cells Apoptosis Assay. Patient material ([…] blood) was obtained from CLL patients (diagnosed according to the NCI-WG guidelines) after routine follow-up or diagnostic procedures at the department of hematology of the Academic Medical Center Amsterdam. Peripheral blood mononuclear cells (PBMCs) were isolated by Ficoll density gradient centrifugation and stored in liquid nitrogen, as cell suspension in heat-inactivated fetal calf serum containing 10% DMSO. During all in vitro experiments, cells were maintained in culture medium: Iscove's modified Dulbecco medium supplemented with 10% heat-inactivated FCS, 100 U/mL penicillin, […] gentamycin and 0.00036% β-mercaptoethanol. All samples contained at least 90% CD5+/CD19+ cells as assessed via flow cytometry. B-CLL cells were thawed and diluted to a concentration of 1.10^6 cells/mL in IMDM plus supplements as described above. […] Apoptosis was analyzed by evaluation of mitochondrial membrane potential with DioC6 (Molecular probes). Cells were incubated with 10 nM DioC6 for 30 minutes at 37° C. and 20 μg/mL propidium iodide was added to measure cell death. Expression of DioC6 was determined using the FACSCalibur flow cytometer and CellQuest software was used for data acquisition. Data were analyzed with FlowJo software (TreeStar, San Carlos, Calif., USA).

[4] = system: IGVH unmutated CLL cells; assay: CLL patient cells apoptosis assay (DioC6/PI); details: 48 hours; FIGS. 2B, F
Description: as §1

[5] = system: P53 mutated CLL cells; assay: CLL patient cells apoptosis assay (DioC6/PI); details: 48 hours, FIGS. 2C
Description: as §1

[6] = system: ATM mutated CLL cells; assay: CLL patient cells apoptosis assay (DioC6/PI); details: 48 hours; FIGS. 2D, G
Description: Patient material (pheripheral blood) was obtained from CLL patients (diagnosed according to the NCI-WG guidelines) after routine follow-up or diagnostic procedures at the department of hematology of the Academic Medical Center Amsterdam. Peripheral blood mononuclear cells (PBMCs) were isolated by Ficoll density gradient centrifugation and stored in liquid nitrogen, as cell suspension in heat-inactivated fetal calf serum containing 10% DMSO. During all in vitro experiments, cells were maintained in culture medium: Iscove's modified Dulbecco medium supplemented with 10% heat-inactivated FCS, 100 U/mL penicillin, 100 m/mL gentamycin and 0.00036% β-mercaptoethanol. All samples contained at least 90% CD5+/CD19+ cells as assessed via flow cytometry. […] Apoptosis was analyzed by evaluation of mitochondrial membrane potential with DioC6 (Molecular probes). Cells were incubated with 10 nM DioC6 for 30 minutes at 37° C. and 20 μg/mL propidium iodide was added to measure cell death. Expression of DioC6 was determined using the FACSCalibur flow cytometer and CellQuest software was used for data acquisition.

[7] = system: CLL cells; assay: Detection of apoptosis with QvD or NAC co-treatment (DiOC6/PI); details: 5 mM NAC, 48 hours
Description: Apoptosis levels were measured by Flow using DiOC6/PI staining and specific apoptosis was calculated. Results are shown as mean±SEM.
Where indicated, CLL cells were co-cultured in the presence/absence of 20 μM of the pancaspase inhibitor QvD or 5 mM N-acetyl-L-cysteine (NAC). CLL cell viability was measured by analysis of mitochondrial transmembrane potential by 3,3-dihexyloxocarbocyanine iodine (DiOC6; Invitrogen/Molecular Probes) and cell membrane permeability to propidium iodide (PI; Sigma Aldrich) using the FACS Calibur flow cytometer. Specific apoptosis is defined as [% cell death in drug treated cells]−[% cell death in medium control]/[% viable cells medium control]×100 using the Graphpad Prism software (Graphpad Prism 5.0, La Jolla, USA).

[8] = system: mRNA of pro-/anti-apoptotic mediators in CLL cells; assay: RT-MLPA of pro- and anti-apoptotic regulators; details: 1 μM, 24 hours
Description: Reverse Transcription-Multiplex Ligation-Dependent Probe Amplification Assay.
CLL Cells were harvested per stimulation, washed with PBS, resuspended in RNA lysis buffer (Qiagen, Venlo, the Netherlands) and stored at −80° C. RNA was isolated using the GenElute Mammalian Total RNA Miniprep kit (Sigma-aldrich). The concentration and purity of the RNA were determined with a NanoDrop spectrophotometer ND-1000 (NanoDrop Technologies, Willington, USA). Reverse transcription-multiplex ligation-dependent probe amplification assay (RT-MLPA) procedure was performed as described previously by Eldering et al. Nucleic Acids Res. 2003; 31:e153. In brief, 40-60 ng of total RNA of samples were first reverse transcribed using a gene-specific probe mix (R016-X2). The resulting cDNA was annealed overnight at 60° C. to the MLPA probes. The annealed oligonucleotides were covalently linked by Ligase-65 (MRC, Amsterdam, the Netherlands) at 54° C. […] Results were analyzed using the programs Genescan analysis and Genotypes (Applied Biosystems). Data was further analyzed with Microsoft Excel Spreadsheet software. Normalization was performed by setting the sum of all data per sample at 100% and individual peaks were calculated relative to the 100% value.

[9] = system: primary CLL cells; assay: BCR-mediated adhesion of primary CLL cells to fibronectin; details: 1 μM pretreatment; IgVH unmutated samples; n=5
Description: Graphs are presented as normalized mean±SEM (100%=stimulated cells without inhibitors). *0.01≤P<0.05; **0.001≤P<0.01 (paired one sample T test) (n=5). BCR-mediated adhesion of primary CLL cells (FIG. 4) was tested.

[10] = system: phospho-S6; assay: Western blot of mTOR pathway, unstimulated CLL cells; details: 1 μM, 2 hours
Description: (§2) Protein lysates were probed for phospho-S6 and actin for loading control. Blots from three representative CLL samples are shown, of a total of five analyzed. […] Blots were probed for p-Akt(Thr308), p-Akt (Ser473), p-S6, p-4EBP1 and actin for loading control. Blots from two representative CLL samples shown, of a total of four analyzed.
(§3) Western blot analysis was performed using standard techniques [Hallaert et al. Blood 2008(112):5141-5149]. Samples (50 μg protein) were separated by 13% SDS-PAGE gel electrophoresis. Membranes were probed with anti-p-S6, p-4EBP1, p-Akt (Thr308), p-Akt (Ser473) (Cell Signaling), Bim (Stressgen Bioreagents Canada) and antiserum to β-actin (Santa Cruz Biotechnology) as loading control. Blots were subsequently incubated with IRDye 680 or 800 labelled secondary antibodies for 1 hour. Odyssey Imager (Li-Cor Biosciences) was used as a detection method according to the manufacturer's protocol. For the p-DNA-PK western blot, cells were lysed in RIPA sample buffer and sonificated. Samples (50 μg protein) were separated by mini protean TGX gels (Biorad). Transfer onto Immobilon-FL transfer membrane (Millipore) in 1× transfer buffer, 20% MeOH at 30 volts at 4° C. overnight. The following antibodies were used: p-DNA-PK (Ser2056) (Abcam), KAP (TIF1β), phosphorylated-KAP (phospho-TIF1β-ser824; Cell Signalling) and β-actin (Santa Cruz).

[11] = system: p-S6, p-4EBP1, p-Akt (Ser473); assay: Western blot of mTOR pathway, CD40L-activated CLL cells; details: 100, 500 or 1000 nM, 72 hours
Description: as §2, §3

[12] = system: CLL cells; assay: Blast cell formation of CD40L-cocultured CLL cells (FACS); details: CD40L coculture; 1 μM, 3 days
Description: FIG. 6A and FIG. 6B) Blast cell formation was assessed by FACS analysis and results are shown as mean±SEM. *0.01≤P<0.05; **0.001≤P<0.01; ***P<0.001 (paired one sample T test) FIG. 6C) CLL cells were examined for surface expression of CD95 (Fas), CD44, CD54 (ICAM) and CD58 (LFA-3) by flow cytometry. Results are shown as mean±SEM (n=6).

[13] = system: CD95, CD54, CD58, CD44 on CLL cells; assay: Expression of cell surface markers (flow cytometry); details: CD40L coculture; 1 μM, 3 days
Description: Expression of Cell Surface Markers.
Cells were washed and resuspended in staining media (phosphate-buffered saline (PBS) containing 0.5% (wt/vol) bovine serum albumin (BSA)). For analysis of expression of cell surface markers, different combinations of antibodies were used. CD54-PE and CD95-FITC purchased from Pharmingen. CD44-Alexa Fluor 700 was obtained from eBiosciences and CD58 from Immunotech. After incubation for 30 minutes at 4° C. protected from light, cells were washed twice in PBS/0.5% BSA and expression of cell surface markers was analyzed using FACSCalibur flow cytometry.

[14] = system: CLL cells; assay: CD40L coculture survival and fludarabine sensitivity assay (DiOC6/PI)
Description: (§4) FIG. 7A) Apoptosis was assessed by DiOC6/PI staining and results are shown as mean±SEM (n=7). *0.01≤P<0.05; **0.001≤P<<0.01; ***P<0.001 (paired T test). FIG. 7B) After 3 days, fludarabine sensitivity assay was performed. Apoptosis was assessed by DiOC6/PI staining and specific apoptosis are shown as mean±SEM (n=7). *0.01≤P<0.05; **0.001≤P<0.01 (paired T test) FIG. 7C) mRNA levels of pro-/anti-apoptotic mediators in CLL cells were measured by RT-MLPA (n=6). FIG. 7D) Protein lysates were probed for Bim and actin for loading control. Blots from two representative CLL samples shown, of a total of four analyzed.
CD40 stimulation inhibits spontaneous cell death as previously reported [Burger et al. Blood 2009(114):2560-2561]. Lymphocytes of CLL patients were stimulated by coculture with NIH3T3 fibroblasts stably transfected with human CD40L or negative control plasmid (3T3) as described before [Pascutti et al Blood 2013 2013; 122(17):3010-9]. […] After 72 hours of culture, CLL cells were detached and either used for flowcytrometic analyses or subsequently incubated with or without Fludarabine (Sigma) for an additional 48 hours. CLL cell viability was measured as by DiOC6/PI staining as described above. […] CD40L stimulation induces resistance to cytotoxic agents, including fludarabine [Kater et al. Brit J Haematology 2004; 127:404-415].

[15] = system: BIM and BID mRNA; assay: RT-MLPA in CD40L triggered CLL cells; details: 1 μM, 3 days
Description: as §4

[16] = system: Bim; assay: Bim protein Western blot in CD40L-cocultured CLL cells; details: CD40L coculture; 1 μM, 3 days
Description: as §4
as §3, with “Transfer onto Immobilon-FL transfer membrane (Millipore) in 1× transfer buffer, 20% MeOH at 30 volts at 4° C. overnight. The following antibodies were used: p-DNA-PK (Ser2056) (Abcam), KAP (TIF1β), phosphorylated-KAP (phospho-TIF1β-ser824; Cell Signalling) and β-actin (Santa Cruz).” left out

[17] = system: CLL cells; assay: CFSE proliferation assay of CLL cells on 3T40L cells with IL-21; details: CD40L + IL-21 (25 ng/ml); 1 μM, 4 days
Description: After 4 days, CFSE was measured by FACS. […] FIG. 8B) Division index was calculated with FlowJo program. […] PBMC (1.0×10^7/mL) were labelled with 0.5 μM carboxyfluorescein diacetate succinimidyl ester (CFSE, Molecular Probes) as described before [Pascutti et al Blood 2013 2013; 122(17):3010-9]. […] After 4 days, proliferation was assessed in a FACS Canto (BD Biosciences) and analyzed with FlowJosoftware (TreeStar, Ashland, Oreg.).

CCN1C(=O)CNc2ncc(-c3ccc(-c4nc[nH]n4)nc3C)nc21 [Compound 1, 1-ethyl-7-(2-methyl-6-(1H-1,2,4-triazol-3-yl)pyridin-3-yl)-3,4-dihydropyrazino[2,3-b]pyrazin-2(1H)-one] was tested, and the “enhancement of response by addition of Compound 1 to the etoposide regimen” value ([1]; combination with etoposide, ATM-proficient CLL cells) was “did not significantly enhance”, the “sensitivity of wildtype CLL cells to the compound” value [1] was “resistant” and the “sensitivity of del(11q) CLL cells to the compound” value [2] was “exclusively sensitive”. For the same molecule, the induction of apoptosis [3] was “induced apoptosis”, the induction of apoptosis [4] was “induced apoptosis” and the induction of apoptosis [5] was “induced apoptosis”. For the same molecule, the induction of apoptosis [6] was “induced apoptosis”, the “ROS dependence of cell death: effect of NAC co-treatment on cell death” value [7] was “did not result in inhibition” and the “levels of pro- and anti-apoptotic regulators on RNA level, including p53-target genes” value [8] was “not altered”. For the same molecule, the “anti-IgM-stimulated integrin-mediated adhesion to fibronectin” value [9] was “strongly inhibited”, the “phosphorylation of S6” value [10] was “completely blocked” and the p-4EBP1 upregulation [11] was “completely blocked”. The “p-Akt (Ser473) upregulation” value [11] was “completely blocked”, the p-S6 upregulation [11] was “completely blocked” and the “blast-like appearance / blast cell formation” value [12] was “completely blocked”. The “3T40L-induced upregulation of immune accessory molecules (CD95, CD54, CD58, CD44)” value [13] was “significant inhibition”, the fludarabine sensitivity ([14]; 72 hours CD40L coculture, then fludarabine 48 hours) was “partly reversed” and the CD40L-induced survival ([14]; CD40L coculture, 1 μM, 3 days) was “inhibited”. The CD40-induced fludarabine resistance ([14]; co-treatment with Compound 1 during CD40L coculture, then fludarabine 48 hours) was “completely abolished”, the “CD40-mediated inhibition of BIM (RNA)” value [15] was “blocked” and the “upregulation of BID (RNA)” value [15] was “decreased”. The “CD40-mediated decreased expression of Bim protein” value [16] was “blocked” and the “proliferation of CLL cells” value [17] was “completely blocks; also recorded: fully blocked”.
For COc1cc([C@@H]2c3cc4c(cc3[C@@H](O[C@@H]3O[C@@H]5CO[C@@H](C)O[C@H]5[C@H](O)[C@H]3O)[C@H]3COC(=O)[C@H]23)OCO4)cc(OC)c1O [etoposide, reference compound], the “sensitivity of wildtype CLL cells to the compound” value [1] was “highly sensitive” and the “sensitivity of del(11q) CLL cells to the compound” value [2] was “largely resistant”.
